In brackets after ≈: the same amount, converted by molar mass.

Data set [1] relates to Staphylococcus aureus. In words: In vitro antibacterial activity against Staphylococcus aureus 3004 Methicillin-resistant Staphylococcus aureus. The format is functional.
In data set [2] the target is T1, Dipeptidase 1 (Homo sapiens) (UniProt P16444).
T1 sequence (whole entry): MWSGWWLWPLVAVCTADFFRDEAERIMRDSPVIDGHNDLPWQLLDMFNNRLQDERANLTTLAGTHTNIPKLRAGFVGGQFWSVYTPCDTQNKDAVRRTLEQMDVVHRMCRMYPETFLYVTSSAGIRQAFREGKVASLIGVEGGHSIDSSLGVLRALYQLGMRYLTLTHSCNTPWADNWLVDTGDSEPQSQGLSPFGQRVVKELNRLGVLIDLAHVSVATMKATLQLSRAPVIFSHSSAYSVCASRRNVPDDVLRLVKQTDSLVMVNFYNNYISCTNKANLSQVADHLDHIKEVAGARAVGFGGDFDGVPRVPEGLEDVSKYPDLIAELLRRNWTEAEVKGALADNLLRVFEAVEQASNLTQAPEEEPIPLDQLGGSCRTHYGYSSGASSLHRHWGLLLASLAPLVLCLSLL
In words: Tested for stability of compound to human renal DHP-1 relative to imipenem (IMP). In kind it is functional.

In another data set the test system is Escherichia coli. In words: In vitro antibacterial activity against Escherichia coli NIHJ JC-2. In kind it is functional.
Data set [3] has as its system Pseudomonas aeruginosa. In words: In vitro antibacterial activity against Ps. auruginosa 26. In kind it is functional.
The test system of another data set is Proteus vulgaris. The data set can be described thus: In vitro antibacterial activity against Proteus vulgaris IAM 1025. The format is functional.
A short description of data set [4]: Tested for urinary recovery in mice after subcutaneous administration of 20 mg/Kg. The following applies: mouse, urine, sc, read-out: Recovery. In kind it is ADME, organism-based.
Data set [5] concerns Staphylococcus aureus. The data set can be described thus: In vitro antibacterial activity against Staphylococcus aureus 209P JC-1. In kind it is functional.
Data set [6] deals with T2, Dipeptidase 1 (Sus scrofa) (UniProt P22412).
T2 sequence (whole entry): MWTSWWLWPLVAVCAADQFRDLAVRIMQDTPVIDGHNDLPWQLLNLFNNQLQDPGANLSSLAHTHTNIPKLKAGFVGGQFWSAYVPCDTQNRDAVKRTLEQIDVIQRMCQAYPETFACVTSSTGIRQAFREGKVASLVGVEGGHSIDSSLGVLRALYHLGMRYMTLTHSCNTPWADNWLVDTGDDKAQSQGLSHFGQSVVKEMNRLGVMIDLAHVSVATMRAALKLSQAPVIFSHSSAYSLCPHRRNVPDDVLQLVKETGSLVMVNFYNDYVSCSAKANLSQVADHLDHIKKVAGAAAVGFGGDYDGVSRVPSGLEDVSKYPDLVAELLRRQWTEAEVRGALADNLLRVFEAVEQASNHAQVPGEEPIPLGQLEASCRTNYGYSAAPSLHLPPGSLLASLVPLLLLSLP
The data set can be described thus: Tested for stability of compound to swine renal DHP-1 relative to imipenem (IMP). The format is functional.

For data set [7], the target named is T1, Dipeptidase 1 (Homo sapiens). In words: Compound stability against human renal DHP-1 relative to imipenem (IMP). In kind it is functional.
Data set [8] relates to Pseudomonas aeruginosa. The data set can be described thus: Tested in vitro for antibacterial activity against Ps. aeruginosa 26. In kind it is functional.

For `C[C@@H](O)[C@H]1C(=O)N2C(C(=O)O)=C(C3CCCNC3)C[C@H]12` (stereo partly drawn), the MIC against Staphylococcus aureus [1] was 50 µg/mL (≈ 178 µM); against Escherichia coli, 0.39 µg/mL (≈ 1.39 µM); with Pseudomonas aeruginosa [3] it was 1.56 µg/mL (≈ 5.56 µM); in the data set on Proteus vulgaris, 25 µg/mL (≈ 89.2 µM); against Staphylococcus aureus [5] it was below 0.025 µg/mL. The compound also yielded a Stability in [2] of 4.4%. For the same compound, the dose excreted in [4] came to 59%.
On to `C[C@@H](O)[C@H]1C(=O)N2C(C(=O)O)=C(SCCNC=N)C[C@H]12` [IMIPENEM ANHYDROUS], for which the Stability in data set [6] and in data set [7] was 100% in each case. Besides, the minimum inhibitory concentration (MIC) against Staphylococcus aureus [1] is 100 µg/mL (≈ 334 µM); in the data set on Escherichia coli it was 0.78 µg/mL (≈ 2.61 µM); in the data set on Pseudomonas aeruginosa [3], 0.78 µg/mL (≈ 2.61 µM); against Proteus vulgaris it was 3.1 µg/mL (≈ 10.4 µM); in the data set with Staphylococcus aureus [5] it was below 0.025 µg/mL.
Consider `C[C@@H](O)[C@H]1C(=O)N2C(C(=O)O)=C(C3CNC3)C[C@H]12`, for which the Stability in data set [6] is 2%. The MIC was 100 µg/mL (≈ 396 µM) against Staphylococcus aureus [1]; 1.56 µg/mL (≈ 6.18 µM) with Escherichia coli; 1.56 µg/mL (≈ 6.18 µM) against Pseudomonas aeruginosa [3]; 3.13 µg/mL (≈ 12.4 µM) with Proteus vulgaris; 0.05 µg/mL (≈ 0.198 µM) against Staphylococcus aureus [5]. Moreover, in data set [4], the dose excreted was found to be 45%.
`CC(=N)N1CC[C@@H](C2=C(C(=O)O)N3C(=O)[C@H]([C@@H](C)O)[C@H]3C2)C1`: the Stability in data set [6] amounted to 8.4%; in data set [7] it was 34%. For the same compound, the MIC was 6.25 µg/mL (≈ 20.3 µM) in the data set on Staphylococcus aureus [1]; 0.2 µg/mL (≈ 0.651 µM) against Escherichia coli; 0.78 µg/mL (≈ 2.54 µM) with Pseudomonas aeruginosa [3]; 1.56 µg/mL (≈ 5.08 µM) in the data set on Proteus vulgaris; below 0.025 µg/mL against Staphylococcus aureus [5]. Further, the dose excreted in data set [4] came to 44%.
Regarding `C[C@@H](O)[C@H]1C(=O)N2C(C(=O)O)=C(SCCN=CN)C[C@H]12` [IMIPENEM ANHYDROUS], the dose excreted in data set [4] worked out at 29%.
`C[C@@H](O)[C@H]1C(=O)N2C(C(=O)O)=C(C3CCNCC3)C[C@H]12` had a Stability in [6] of 18%. Moreover, the MIC is above 100 µg/mL in the data set with Staphylococcus aureus [1]; 1.56 µg/mL (≈ 5.56 µM) against Escherichia coli; 12.5 µg/mL (≈ 44.6 µM) against Proteus vulgaris; 0.05 µg/mL (≈ 0.178 µM) in the data set with Staphylococcus aureus [5]; 0.78 µg/mL (≈ 2.78 µM) with Pseudomonas aeruginosa [8]. Moreover, the dose excreted in data set [4] came out at 43%.
As for `C[C@@H](O)[C@H]1C(=O)N2C(C(=O)O)=C([C@@H]3CCN(C=N)C3)C[C@H]12`, the values for the Stability in [6] and in [7] were 15% and 39%, respectively. Also, the MIC with Staphylococcus aureus [1] is 25 µg/mL (≈ 85.2 µM); against Escherichia coli, 0.1 µg/mL (≈ 0.341 µM); with Pseudomonas aeruginosa [3] it was 0.2 µg/mL (≈ 0.682 µM); in the data set on Proteus vulgaris it was 1.56 µg/mL (≈ 5.32 µM); against Staphylococcus aureus [5], below 0.025 µg/mL. In [4], the dose excreted came out at 41%.
Take `C[C@@H](O)[C@H]1C(=O)N2C(C(=O)O)=C([C@@H]3CCN(C4=NCCC4)C3)C[C@H]12`: the Stability in data set [6] worked out at 8.4%; in [7], 28%. For the same compound, the MIC against Staphylococcus aureus [1] was 12.5 µg/mL (≈ 37.5 µM); with Escherichia coli it was 0.2 µg/mL (≈ 0.6 µM); with Pseudomonas aeruginosa [3], 0.39 µg/mL (≈ 1.17 µM); in the data set with Proteus vulgaris, 1.56 µg/mL (≈ 4.68 µM); in the data set with Staphylococcus aureus [5] it was below 0.025 µg/mL. The dose excreted in data set [4] is 50%.
Take `C/N=C/N1CC[C@@H](C2=C(C(=O)O)N3C(=O)[C@H]([C@@H](C)O)[C@H]3C2)C1`: the Stability in data set [6] is 7.8%; in [7], 91%. In addition, the MIC in the data set with Staphylococcus aureus [1] was 3.13 µg/mL (≈ 10.2 µM); in the data set with Escherichia coli it was 0.2 µg/mL (≈ 0.651 µM); against Pseudomonas aeruginosa [3], 0.39 µg/mL (≈ 1.27 µM); against Proteus vulgaris, 0.78 µg/mL (≈ 2.54 µM); in the data set on Staphylococcus aureus [5], below 0.025 µg/mL. Further, the dose excreted in data set [4] is 48%.
Take `C/C(=C\[C@@]1(C)CCCN1)C1=C(C(=O)O)N2C(=O)[C@H]([C@@H](C)O)[C@H]2C1`: the Stability in [6] amounted to 4.3%; in data set [7], 45%. In addition, the MIC was 50 µg/mL (≈ 156 µM) in the data set on Staphylococcus aureus [1]; 0.39 µg/mL (≈ 1.22 µM) against Escherichia coli; 3.13 µg/mL (≈ 9.77 µM) in the data set with Pseudomonas aeruginosa [3]; 1.56 µg/mL (≈ 4.87 µM) with Proteus vulgaris; below 0.025 µg/mL against Staphylococcus aureus [5]. Also, the dose excreted in data set [4] came to 61%.
On to `C[C@@H](O)[C@H]1C(=O)N2C(C(=O)O)=C(C3CCNC3)C[C@H]12` (stereo partly drawn), for which the Stability came out at 13% in [6] and 58% in [7]. Besides, the MIC in the data set on Staphylococcus aureus [1] is 100 µg/mL (≈ 376 µM); in the data set with Escherichia coli it was 0.39 µg/mL (≈ 1.46 µM); against Pseudomonas aeruginosa [3] it was 0.78 µg/mL (≈ 2.93 µM); with Proteus vulgaris it was 12.5 µg/mL (≈ 46.9 µM); in the data set on Staphylococcus aureus [5] it was below 0.025 µg/mL. In [4], the dose excreted is 42%.
In turn, `C[C@@H](O)[C@H]1C(=O)N2C(C(=O)O)=C([C@@H]3CCN(C(=N)CO)C3)C[C@H]12` came in with a Stability in data set [6] of 13%. The MIC is 25 µg/mL (≈ 77.3 µM) in the data set on Staphylococcus aureus [1]; 0.39 µg/mL (≈ 1.21 µM) in the data set on Escherichia coli; 0.78 µg/mL (≈ 2.41 µM) in the data set with Pseudomonas aeruginosa [3]; 3.13 µg/mL (≈ 9.68 µM) in the data set on Proteus vulgaris; below 0.025 µg/mL against Staphylococcus aureus [5]. The dose excreted in data set [4] amounted to 52%.
For `CC(=N)N1CC[C@H](SC2=C(C(=O)O)N3C(=O)[C@H]([C@@H](C)O)[C@H]3C2)C1` [PANIPENEM], the MIC against Staphylococcus aureus [1] is 50 µg/mL (≈ 147 µM); with Escherichia coli, 0.2 µg/mL (≈ 0.589 µM); in the data set on Pseudomonas aeruginosa [3], 0.39 µg/mL (≈ 1.15 µM); against Proteus vulgaris it was 1.56 µg/mL (≈ 4.6 µM); in the data set on Staphylococcus aureus [5], 0.025 µg/mL (≈ 0.0737 µM). Moreover, in data set [4], the dose excreted stood at 25%.
As for `C[C@@H](O)[C@H]1C(=O)N2C(C(=O)O)=C([C@H]3CCNC3)C[C@H]12`, the Stability turned out to be 16% in data set [6] and 78% in [7]. Besides, the MIC with Staphylococcus aureus [1] was 100 µg/mL (≈ 376 µM); in the data set with Escherichia coli it was 0.39 µg/mL (≈ 1.46 µM); with Pseudomonas aeruginosa [3], 0.78 µg/mL (≈ 2.93 µM); in the data set with Proteus vulgaris, 6.25 µg/mL (≈ 23.5 µM); in the data set on Staphylococcus aureus [5] it was below 0.025 µg/mL. In [4], the dose excreted amounted to 46%.
`C[C@@H](O)[C@H]1C(=O)N2C(C(=O)O)=C([C@@H]3CCNC3)C[C@H]12`: the Stability in [6] was determined as 8.8%; in data set [7] it was 48%. Moreover, the minimal inhibitory concentration (MIC) was 50 µg/mL (≈ 188 µM) against Staphylococcus aureus [1]; 0.2 µg/mL (≈ 0.751 µM) with Escherichia coli; 0.39 µg/mL (≈ 1.46 µM) in the data set with Pseudomonas aeruginosa [3]; 6.25 µg/mL (≈ 23.5 µM) with Proteus vulgaris; below 0.025 µg/mL in the data set with Staphylococcus aureus [5]. Moreover, the dose excreted in data set [4] turned out to be 37%.
As for `C[C@@H](O)[C@H]1C(=O)N2C(C(=O)O)=C([C@@H]3CCN(C(=N)CC(N)=O)C3)C[C@H]12`, the Stability is 13% in data set [6] and 14% in data set [7]. In addition, the minimal inhibitory concentration (MIC) was 6.25 µg/mL (≈ 17.8 µM) against Staphylococcus aureus [1]; 0.39 µg/mL (≈ 1.11 µM) with Escherichia coli; 0.39 µg/mL (≈ 1.11 µM) against Pseudomonas aeruginosa [3]; 1.56 µg/mL (≈ 4.45 µM) with Proteus vulgaris; below 0.025 µg/mL against Staphylococcus aureus [5]. Besides, the dose excreted in data set [4] came to 43%.
`C[C@@H](O)[C@H]1C(=O)N2C(C(=O)O)=C([C@@H]3CCN(C(=N)CNC(N)=O)C3)C[C@H]12`: the MIC in the data set on Staphylococcus aureus [1] is 25 µg/mL (≈ 68.4 µM); in the data set on Escherichia coli, 0.2 µg/mL (≈ 0.547 µM); against Pseudomonas aeruginosa [3] it was 0.39 µg/mL (≈ 1.07 µM); against Proteus vulgaris it was 3.13 µg/mL (≈ 8.57 µM); against Staphylococcus aureus [5] it was below 0.025 µg/mL. Moreover, the Stability in data set [7] came out at 20%. In addition, in [4], the dose excreted came to 47%.
Turning to `C[C@@H](O)[C@H]1C(=O)N2C(C(=O)O)=C([C@@H]3CCN(C(=N)COC(N)=O)C3)C[C@H]12`, the MIC with Staphylococcus aureus [1] is 6.25 µg/mL (≈ 17.1 µM); in the data set on Escherichia coli, 0.1 µg/mL (≈ 0.273 µM); in the data set on Pseudomonas aeruginosa [3], 0.78 µg/mL (≈ 2.13 µM); against Proteus vulgaris it was 1.56 µg/mL (≈ 4.26 µM); with Staphylococcus aureus [5], below 0.025 µg/mL. In addition, the Stability in data set [7] worked out at 13%. Further, in data set [4], the dose excreted came out at 42%.

Usually MIC stands for the lowest concentration that inhibits growth of the organism. A low value points to a more susceptible organism.

Values taken from ChEMBL document CHEMBL1135036, “Synthesis and antibacterial evaluation of novel 2-[N-Imidoylpyrrolidinyl] carbapenems” (Bioorg Med Chem Lett, 2002).
